Measurements reported in US7445641B1, “Biomaterials modified with superoxide dismutase mimics” (priority 1999, dated 2008).

Experiments:
[1] = Stopped-flow kinetic analysis of superoxide dismutation; assay type: biochemical; parameters: kcat pH 8.1 / kcat pH 7.4: unit not given here
Excerpt: Stopped-flow kinetic analysis is an accurate and direct method for quantitatively monitoring the decay rates of superoxide in water.
For the attainment of consistent and accurate measurements all reagents were biologically clean and metal-free. To achieve this, all buffers (Calbiochem) were biological grade, metal-free buffers and were handled with utensils which had been washed first with 0.1N HCl, followed by purified water, followed by a rinse in a 10^−4 M EDTA bath at pH 8, followed by a rinse with purified water and dried at 65° C. for several hours. Dry DMSO solutions of potassium superoxide (Aldrich) were prepared under a dry, inert atmosphere of argon in a Vacuum Atmospheres dry glovebox using dried glassware. The DMSO solutions were prepared immediately before every stopped-flow experiment. A mortar and pestle were used to grind the yellow solid potassium superoxide (~100 mg). The powder was then ground with a few drops of DMSO and the slurry transferred to a flask containing an additional 25 ml of DMSO. The resultant slurry was stirred for ½ h and then filtered. This procedure gave reproducibly ~2 mM concentrations of superoxide in DMSO. These solutions were transferred to a glovebag under nitrogen in sealed vials prior to loading the syringe under nitrogen. It should be noted that the DMSO/superoxide solutions are extremely sensitive to water, heat, air, and extraneous metals. A fresh, pure solution has a very slight yellowish tint.
Water for buffer solutions was delivered from an in-house deionized water system to a Barnstead Nanopure Ultrapure Series 550 water system and then double distilled, first from alkaline potassium permanganate and then from a dilute EDTA solution. For example, a solution containing 1.0 g of potassium permanganate, 2 liters of water and additional sodium hydroxide necessary to bring the pH to 9.0 were added to a 2-liter flask fitted with a solvent distillation head. This distillation will oxidize any trace of organic compounds in the water. The final distillation was carried out under nitrogen in a 2.5-liter flask containing 1500 ml of water from the first still and 1.0×10^−6 M EDTA. This step will remove remaining trace metals from the ultrapure water. To prevent EDTA mist from volatilizing over the reflux arm to the still head, the 40-cm vertical arm was packed with glass beads and wrapped with insulation. This system produces deoxygenated water that can be measured to have a conductivity of less than 2.0 nanomhos/cm^2.
The stopped-flow spectrometer system was designed and manufactured by Kinetic Instruments Inc. (Ann Arbor, Mich.) and was interfaced to a MAC IICX personal computer. The software for the stopped-flow analysis was provided by Kinetics Instrument Inc. and was written in QuickBasic with MacAdios drivers. Typical injector volumes (0.10 ml of buffer and 0.006 ml of DMSO) were calibrated so that a large excess of water over the DMSO solution were mixed together. The actual ratio was approximately 19/1 so that the initial concentration of superoxide in the aqueous solution was in the range 60-120 μM. […]

[2] = polypropylene admixed 2% by weight, melted at 250° C., extracted with pure water
Description: 0.105 g of Compound 38 was added to 4.9 g of cryoground polypropylene. The mixture was melted at 250° C. and extruded into a strand and a fiber. In this manner, a polypropylene modified with a non-proteinaceous catalyst, 2% by weight, was made. The product strand was cryoground and extracted with pure water.

## [Cl][Mn]1234([Cl])[N]5CC[N]1CC[N]2CC[N]3CC[N]4CC5 [Compound 1]
[1]
  kcat pH 7.4: 4.13
  kcat pH 8.1: 2.24

## [Cl][Mn]1234([Cl])[N]5CC[N]1CC[N]2CC(Cc1ccccc1)[N]3CC[N]4CC5 (centres unmarked) [Compound 2]
[1]
  kcat pH 7.4: 7.21
  kcat pH 8.1: 2.57

## C#CCC1C[N]2CC[N]3CC[N]4CC[N]5CC[N]1[Mn]4352([Cl])[Cl] (centres unmarked) [Compound 4]
[1]
  kcat pH 8.1: 1.75

## C[C@@H]1C[N]2[C@@H](C)C[N]3[C@@H](C)C[N]4[C@H](C)C[N]5[C@@H](C)C[N]1[Mn]4523([Cl])[Cl] [Compound 5]
[1]
  kcat pH 7.4: 3.82
  kcat pH 8.1: 3.90

## Oc1ccccc1CC1C[N]2CC[N]3CC[N]4CC[N]5CC[N]1[Mn]4352([Cl])[Cl] (centres unmarked) [Compound 6]
[1]
  kcat pH 7.4: 6.99
  kcat pH 8.1: 3.83

## [Cl][Mn]1234([Cl])[N]5CC[N]1CC[N]2[C@@H](Cc1cnc[nH]1)C[N]3[C@H](Cc1cnc[nH]1)C[N]4CC5 [Compound 7]
[1]
  kcat pH 7.4: 2.00
  kcat pH 8.1: 1.58

## CNCCCC[C@@H]1C[N]2CC[N]3CC[N]4CC[N]5[C@@H](CCCCNC)C[N]1[Mn]3425([Cl])[Cl] [Compound 8]
[1]
  kcat pH 7.4: 5.95
  kcat pH 8.1: 5.90

## FC(F)(F)CC1C[N]2CC[N]3CC[N]4CC[N]5CC[N]1[Mn]4352([Cl])[Cl] (centres unmarked) [Compound 9]
[1]
  kcat pH 7.4: 2.77
  kcat pH 8.1: 1.68

## OC[C@@H]1C[N]2[C@@H](CO)C[N]3[C@@H](CO)C[N]4[C@H](CO)C[N]5[C@@H](CO)C[N]1[Mn]4523([Cl])[Cl] [Compound 10]
[1]
  kcat pH 7.4: 2.68
  kcat pH 8.1: 2.68

## NCCC[C@H]1C[N]2[C@@H]3CCCC[C@H]3[N]3CC[N]4CC[N]5CC[N]1[Mn]5432([Cl])[Cl] [Compound 11]
[1]
  kcat pH 7.4: 4.79
  kcat pH 8.1: 2.85

## [Cl-].[Cl-].[NH3+]CCCC[C@@H]1C[N]2[C@@H](CCCC[NH3+])C[N]3[C@@H]4CCCC[C@H]4[N]4CC[N]5CC[N]1[Mn]5243([Cl])[Cl] [Compound 12]
[1]
  kcat pH 7.4: 10.20
  kcat pH 8.1: 5.39

## C=CCC1C[N]2CC[N]3CC[N]4CC[N]5CC[N]1[Mn]4352([Cl])[Cl] (centres unmarked) [Compound 13]
[1]
  kcat pH 8.1: 1.63

## NCCC[C@H]1C[N]2[C@H]3CCCC[C@H]3[N]3CC[N]4[C@H]5CCCC[C@H]5[N]5CC[N]1[Mn]5342([Cl])[Cl] [Compound 14]
[1]
  kcat pH 7.4: 7.58
  kcat pH 8.1: 3.84

## C[C@H](CCCNCCC[C@H]1C[N]2[C@@H]3CCCC[C@H]3[N]3CC[N]4CC[N]5CC[N]1[Mn]5432([Cl])[Cl])[C@H]1CCC2[C@@H]3CC[C@@H]4C[C@H](O)CC[C@]4(C)C3CC[C@@]21C (some centres unmarked) [Compound 15]
[1]
  kcat pH 7.4: 2.41
  kcat pH 8.1: 0.77

## NCC[C@H]1C[N]2[C@@H](CCN)C[N]3[C@@H]4CCCC[C@H]4[N]4CC[N]5CC[N]1[Mn]5243([Cl])[Cl] [Compound 16]
[1]
  kcat pH 7.4: 2.48
  kcat pH 8.1: 1.97

## [Cl][Mn]1234([Cl])[N]5CC[N]1C1CCCCC1[N]2CC[N]3C1CCCCC1[N]4CC5 (centres unmarked) [Compound 17]
[1]
  kcat pH 7.4: 12.60
  kcat pH 8.1: 4.09

## C[C@@H]1C[N]2[C@H]3CCCC[C@H]3[N]3CC[N]4C5CCCCC5[N]5CC[N]1[Mn]5432([Cl])[Cl] (some centres unmarked) [Compound 18]
[1]
  kcat pH 7.4: 15.00
  kcat pH 8.1: 4.00

## C[C@@H]1C[N]2[C@@H](C)C[N]3[C@@H]4CCCC[C@H]4[N]4C[C@H](C)[N]5CC[N]1[Mn]4352([Cl])[Cl] [Compound 19]
[1]
  kcat pH 7.4: 8.48
  kcat pH 8.1: 4.08

## [Cl-].[Cl][Fe]1234([Cl])[N]5CC[N]1C1CCCCC1[N]2CC[N]3C1CCCCC1[N]4CC5 (centres unmarked) [Compound 20]
[1]
  kcat pH 7.4: 3.29
  kcat pH 8.1: 0.93

## CC(C)(C)SC[C@H]1C[N]2[C@@H]3CCCC[C@H]3[N]3C[C@H](CSC(C)(C)C)[N]4CC[N]5CC[N]1[Mn]5423([Cl])[Cl] [Compound 21]
[1]
  kcat pH 7.4: 2.93
  kcat pH 8.1: 1.29

## N#C[S][Mn]1234([S]C#N)[N]5CC[N]1C1CCCCC1[N]2CC[N]3C1CCCC[C@H]1[N]4CC5 (some centres unmarked) [Compound 22]
[1]
  kcat pH 7.4: 11.40
  kcat pH 8.1: 5.03

## OC[C@@H]1C[N]2CC[N]3[C@@H](CO)C[N]4[C@H](CO)C[N]5[C@@H](CO)C[N]1[Mn]2345([Cl])[Cl] [Compound 23]
[1]
  kcat pH 7.4: 6.61
  kcat pH 8.1: 3.47

## C[C@@H]1C[N]2[C@@H](C)C[N]3CC[N]4C[C@H](C)[N]5[C@@H](COc6ccco6)C[N]1[Mn]3425([Cl])[Cl] [Compound 24]
[1]
  kcat pH 7.4: 2.55
  kcat pH 8.1: 2.55

## COC(=O)C1=C(C(=O)OC)C2OC1C=C2COC[C@H]1C[N]2[C@H](C)C[N]3[C@@H](C)C[N]4CC[N]5[C@H](C)C[N]1[Mn]4523([Cl])[Cl] (some centres unmarked) [Compound 25]
[1]
  kcat pH 7.4: 4.04
  kcat pH 8.1: 2.34

## OC[C@@H]1C[N]2[C@@H]3CCCC[C@H]3[N]3CC[N]4C5CCCCC5[N]5CC[N]1[Mn]5432([Cl])[Cl] (some centres unmarked) [Compound 26]
[1]
  kcat pH 7.4: 10.12
  kcat pH 8.1: 3.47

## C[C@H]1C[N]2[C@@H](CCCO)C[N]3[C@@H]4CCCC[C@H]4[N]4C[C@H](CCCO)[N]5CC[N]1[Mn]5243([Cl])[Cl] [Compound 27]
[1]
  kcat pH 7.4: 4.83
  kcat pH 8.1: 2.50

## C[C@@H]1C[N]2[C@@H](CCCN)C[N]3[C@@H]4CCCC[C@H]4[N]4CC[N]5[C@@H](C)C[N]1[Mn]2435([Cl])[Cl] [Compound 31]
[1]
  kcat pH 7.4: 2.97
  kcat pH 8.1: 2.91

## C[C@@H]1C[N]2[C@@H](CCCNC(=O)CCC(=O)O)C[N]3[C@@H]4CCCC[C@H]4[N]4CC[N]5[C@@H](C)C[N]1[Mn]2435([Cl])[Cl] [Compound 32]
[1]
  kcat pH 7.4: 1.74
  kcat pH 8.1: 1.43

## CC(=O)OC[C@@H]1C[N]2CC[N]3[C@@H](COC(C)=O)C[N]4[C@H](COC(C)=O)C[N]5[C@@H](COC(C)=O)C[N]1[Mn]2345([Cl])[Cl] [Compound 33]
[1]
  kcat pH 7.4: 7.27
  kcat pH 8.1: 4.08

## CCC(=O)OCC1C[N]2CC[N]3[C@@H](COC(=O)CC)C[N]4[C@@H](COC(=O)CC)C[N]5[C@@H](COC(=O)CC)C[N]1[Mn]2354([Cl])[Cl] (some centres unmarked) [Compound 34]
[1]
  kcat pH 7.4: 2.70
  kcat pH 8.1: 2.78

## C[C@H]1C[N]2[C@@H](C)C[N]3[C@@H](CCCNC(=O)CC(CC(=O)O)NC(=O)CNC(=O)c4cccc(NC(=N)N)c4)C[N]4[C@H]5CCCC[C@H]5[N]5CC[N]1[Mn]3524([Cl])[Cl] (some centres unmarked) [Compound 35]
[1]
  kcat pH 7.4: 4.38
  kcat pH 8.1: 2.87

## O=C(OC[C@H]1C[N]2[C@@H](COC(=O)c3ccccc3)C[N]3[C@@H](COC(=O)c4ccccc4)C[N]4[C@@H](COC(=O)c5ccccc5)C[N]5CC[N]1[Mn]5423([Cl])[Cl])c1ccccc1 [Compound 36]
[1]
  kcat pH 7.4: 0.63
  kcat pH 8.1: 0.49

## CC(C)C(=O)OC[C@@H]1C[N]2[C@@H]3CCCC[C@H]3[N]3CC[N]4C5CCCCC5[N]5CC[N]1[Mn]5432([Cl])[Cl] (some centres unmarked) [Compound 37]
[1]
  kcat pH 7.4: 3.08

## [Cl-].[Cl-].[Mn+2].c1cc2nc(c1)CN[C@@H]1CCCC[C@H]1NCCN[C@@H]1CCCC[C@H]1NC2 [Compound 38, Manganese (II) dichloro{(4R,9R,14R,19R)-3,10,13,20,26-pentaazatetracyclo [20.3.1.04,9.014,19]hexacosa-1(26),22(23),24-triene}]
[1]; extracted with pure water from polypropylene strand, confirmed by stopped-flow kinetic analysis and HPLC-UV
  activity of compound extracted from the strand: Active
[1]
  kcat pH 7.4: 1.64
  kcat pH 8.1: 1.19
[2]
  elution of the admixed compound from the cryoground polymer: ~10%

## CCC(=O)OC[C@H]1C[N]2[C@@H]3CCCC[C@H]3[N]3CC[N]4C5CCCCC5[N]5CC[N]1[Mn]5432([Cl])[Cl] (some centres unmarked) [Compound 39]
[1]
  kcat pH 7.4: 3.89
  kcat pH 8.1: 2.32

## Manganese(II) dichloro(4R,9R,11R,14R,19R)-3,10,13,20,26-pentaaza-(2R,21R)-dimethyltetracyclo[20.3.1.0^4,9, 0^14,19]hexacose-1(25),22(26),23-triene [Compound 40]
[1]
  kcat pH 7.4: 90.00
  kcat pH 8.1: 11.00
